Measured values reported in the NIST ThermoML archive (doi:10.1016/j.fluid.2008.04.016).
Where “and” joins values, the source holds several entries; their conditions need not be identical. Equal values may be shown once. ± gives the expanded uncertainty stated by the source.

Details: Liquid

CC(C)(C)c1cc(C(C)(C)C)cc(C(C)(C)C)c1 [1,3,5-tri-tert-butylbenzene]
Transpiration method
Details	vapor or sublimation pressure [kPa]
352.15 K	0.1311 ± 0.0066
354.45 K	0.1544 ± 0.0077
356.65 K	0.1766 ± 0.0088
358.95 K	0.2039 ± 0.01
359.15 K	0.2029 ± 0.01
361.35 K	0.2292 ± 0.011
362.05 K	0.2407 ± 0.012
363.45 K	0.2577 ± 0.013
365.15 K	0.2888 ± 0.014
367.45 K	0.3257 ± 0.016
370.15 K	0.3801 ± 0.019
372.65 K	0.4354 ± 0.022
374.95 K	0.4944 ± 0.025
377.35 K	0.5671 ± 0.028
379.55 K	0.6317 ± 0.032
382.65 K	0.7387 ± 0.037

CC(C)(C)c1ccc(C(C)(C)C)cc1 [1,4-bis(1,1-dimethylethyl)benzene]
Transpiration method
Details	vapor or sublimation pressure [kPa]
354.15 K	0.3792 ± 0.019
356.45 K	0.4257 ± 0.021
358.95 K	0.4877 ± 0.024
361.75 K	0.5742 ± 0.029
364.25 K	0.6537 ± 0.033
366.45 K	0.7231 ± 0.036
366.55 K	0.7158 ± 0.036
369.15 K	0.8057 ± 0.04
372.05 K	0.9399 ± 0.047
374.15 K	1.036 ± 0.052
376.45 K	1.171 ± 0.059
379.75 K	1.376 ± 0.069
381.75 K	1.507 ± 0.075
383.25 K	1.647 ± 0.082

Cc1cc(C(C)(C)C)cc(C(C)(C)C)c1 [3,5-di-tert-butyltoluene]
Transpiration method
Details	vapor or sublimation pressure [kPa]
308.25 K	0.01666 ± 0.00083
310.65 K	0.01931 ± 0.00097
313.35 K	0.02366 ± 0.0012
315.45 K	0.02884 ± 0.0014
317.95 K	0.03401 ± 0.0017
320.45 K	0.04037 ± 0.002
323.05 K	0.04906 ± 0.0024
325.55 K	0.05841 ± 0.0029
327.95 K	0.06909 ± 0.0035
330.55 K	0.08097 ± 0.004
333.05 K	0.09656 ± 0.0048
335.55 K	0.1131 ± 0.0057
338.15 K	0.1302 ± 0.0065
340.65 K	0.1549 ± 0.0077
343.05 K	0.1773 ± 0.0089
345.55 K	0.2067 ± 0.01
348.1 K	0.2475 ± 0.012
350.45 K	0.2845 ± 0.014
353.05 K	0.3277 ± 0.016
355.65 K	0.3743 ± 0.019
358.15 K	0.4358 ± 0.022

Details	vapor or sublimation pressure
379.62 K	1.318 ± 0.02 kPa
379.86 K	1.338 ± 0.02 kPa
380.13 K	1.358 ± 0.02 kPa
393.09 K	2.478 ± 0.021 kPa
393.16 K	2.483 ± 0.021 kPa
393.19 K	2.483 ± 0.021 kPa
393.25 K	2.488 ± 0.021 kPa
402.75 K	3.746 ± 0.021 kPa
402.76 K	3.746 ± 0.021 kPa
402.77 K	3.746 ± 0.021 kPa
410.74 K	5.173 ± 0.022 kPa
410.81 K	5.179 ± 0.022 kPa
410.83 K	5.184 ± 0.022 kPa
410.85 K	5.189 ± 0.022 kPa
428.47 K	10.05 ± 0.023 kPa
428.48 K	10.05 ± 0.023 kPa
439.99 K	14.94 ± 0.025 kPa
440 K	14.94 ± 0.025 kPa
449.13 K	20.06 ± 0.027 kPa and 20.07 ± 0.027 kPa
449.14 K	20.06 ± 0.027 kPa
449.15 K	20.07 ± 0.027 kPa
449.2 K	20.09 ± 0.027 kPa
449.21 K	20.09 ± 0.027 kPa
449.22 K	20.1 ± 0.027 kPa
456.12 K	24.89 ± 0.03 kPa
456.13 K	24.89 ± 0.03 kPa
456.14 K	24.89 ± 0.03 kPa
462.5 K	30.11 ± 0.032 kPa
462.52 K	30.11 ± 0.032 kPa
467.98 K	35.24 ± 0.034 kPa
472.54 K	40.02 ± 0.037 kPa
478.05 K	46.5 ± 0.039 kPa
478.06 K	46.5 ± 0.039 kPa
482.73 K	52.54 ± 0.043 kPa and 52.65 ± 0.043 kPa and 52.66 ± 0.043 kPa
482.76 K	52.69 ± 0.043 kPa
482.77 K	52.7 ± 0.043 kPa
487.56 K	59.65 ± 0.046 kPa
487.57 K	59.67 ± 0.046 kPa
487.58 K	59.69 ± 0.046 kPa
491.67 K	66.2 ± 0.049 kPa and 66.19 ± 0.049 kPa
491.68 K	66.21 ± 0.049 kPa
495.5 K	72.78 ± 0.052 kPa
495.53 K	72.83 ± 0.052 kPa
498.98 K	79.21 ± 0.055 kPa
498.99 K	79.22 ± 0.055 kPa
503.36 K	87.92 ± 0.058 kPa and 87.93 ± 0.058 kPa
505.71 K	92.91 ± 0.061 kPa
505.72 K	92.91 ± 0.061 kPa
508.06 K	98.13 ± 0.063 kPa
508.07 K	98.13 ± 0.063 kPa
508.08 K	98.17 ± 0.063 kPa
508.09 K	98.18 ± 0.063 kPa
509.38 K	101.13 ± 0.065 kPa and 101.14 ± 0.065 kPa and 101.15 ± 0.065 kPa
509.93 K	102.44 ± 0.065 kPa
509.94 K	102.45 ± 0.065 kPa
510.55 K	103.88 ± 0.066 kPa
510.56 K	103.87 ± 0.065 kPa and 103.88 ± 0.065 kPa

CC(c1ccccc1)C(C)(C)C (stereo unspecified) [(1,2,2-trimethylpropyl)benzene]
Transpiration method
Details	vapor or sublimation pressure [kPa]
296 K	0.04082 ± 0.0021
298.5 K	0.04885 ± 0.0025
301 K	0.05923 ± 0.003
303.5 K	0.07018 ± 0.0036
305.9 K	0.08326 ± 0.0042
308.4 K	0.09874 ± 0.005
310.9 K	0.1175 ± 0.006
313.4 K	0.1378 ± 0.007
315.9 K	0.1579 ± 0.008
318.3 K	0.185 ± 0.0094
320.8 K	0.2193 ± 0.011
323.3 K	0.2551 ± 0.013
325.8 K	0.292 ± 0.015
